This note sets out measurements from patent publication US20230339981A1, “KRAS G12D MODULATING COMPOUNDS” (priority 2022, published 2023).

One experiment deals with GDP-loaded KRAS G12D (Homo sapiens (Human), UniProt P01116, G12D). The experiment is described as follows: KRAS G12D (GDP) biochemical assay (TR-FRET probe displacement). The experiment is classed as binding. The following applies: 2 hours. On the procedure: Example A. KRAS G12D (GDP) Biochemical Assay
Compounds were tested for binding to GDP-loaded KRAS G12D in a 384-well assay format using a TR-FRET probe displacement assay in buffer consisting of 50 mM Hepes (pH 7.4), 150 mM NaCl, 5 mM MgCl2 and 0.005% Tween-20. […] Compounds were serially diluted (1:3) in DMSO. The LabCyte ECHO Acoustic dispenser system was used to pre-spot the assay plates (384-well Non-Binding Surface plates, Corning, Catalog #3824) with 50 nL of compound. The compounds were pre-incubated with 5 μL of 2× final enzyme concentration for 30 minutes before adding 5 μL of 2× final concentration of Eu-streptavidin and TR-FRET probe (10 μL final reaction volume). The plates were incubated at room temperature for 2 hours before measuring TR-FRET ratio on the Envision plate reader. IC50 values were defined as the compound concentration that causes a 50% decrease in TR-FRET ratio and were calculated using a sigmoidal dose-response model to generate curve fits.
On the technique in general: Time-resolved FRET reads energy transfer from a long-lived donor to a nearby acceptor.

A further experiment deals with GP2D (KRAS G12D) cells. Put plainly: 2D cell viability assay (CellTiter-Glo). The experiment is classed as cell-based. Conditions: GP2d, 96 h, 4 days. The procedure: Example B. 2D Cell Viability Assay
Compounds were tested in a 384-well format for their ability to inhibit the viability of GP2D (KRAS G12D) cells in 2D assays. Compounds were serially diluted (1:3) in DMSO. The LabCyte ECHO Acoustic dispenser system was used to pre-spot assay plates with 200 nL of test molecule per well. 1000 cells/well (40 μL volume per well) in RPMI medium with 10% FBS, and Penicillin-Streptomycin-Glutamine were plated in pre-spotted 384-well plates (Greiner, Catalog #781076) on the BioTEK EL406 liquid dispenser with a 5 μL dispensing cassette (BioTek 7170011). The plates were incubated at 37° C., 5% CO2 for 4 days before addition of CellTiter-Glo (CTG) reagent and measurement of luminescence signal. EC50 values were defined as the compound concentration that causes a 50% decrease in luminescence signal and were calculated using a sigmoidal dose-response model to generate curve fits.
For orientation: In ATP-based viability assays light output follows the ATP content of the culture.

GDP-loaded KRAS G12D, sequence (P01116-2 other isoform, or with tags, fused parts or gaps G12D): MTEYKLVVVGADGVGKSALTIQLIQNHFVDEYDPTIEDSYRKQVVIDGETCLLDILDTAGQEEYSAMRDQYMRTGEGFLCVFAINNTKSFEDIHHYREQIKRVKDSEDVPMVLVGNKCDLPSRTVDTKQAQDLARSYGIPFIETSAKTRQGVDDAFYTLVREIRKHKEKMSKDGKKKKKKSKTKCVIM

For orientation: IC50 means the concentration at which inhibition is half-maximal. Lower therefore signals higher potency. For orientation: EC50 means the concentration that produces a half-maximal response. A low value points to an effect from little substance. On GDP-loaded KRAS G12D, `C#Cc1c(F)ccc2cc(O)cc(-c3nc4c5c(nc(OCC6(CN7CCC[C@@H](F)C7)CC6)nc5c3F)N3C[C@H]5CC[C@H](N5)[C@H]3CO4)c12` [Example 34, 5-ethynyl-6-fluoro-4-((5aS,6S,9R)-1-fluoro-12-((1-(((R)-3-fluoropiperidin-1-yl)methyl)cyclopropyl)methoxy)-5a,6,7,8,9,10-hexahydro-5H-4-oxa-3,10a,11,13,14-pentaaza-6,9-methanonaphtho[1,8-ab]heptalen-2-yl)naphthalen-2-ol] returned an IC50 of 0.2 nM. In the experiment with GP2D (KRAS G12D) cells, this compound came in with an EC50 of 2 nM.

`C#Cc1c(F)ccc2cc(O)cc(-c3nc4c5c(nc(OC[C@@]67CCCN6[C@H](CN=[N+]=[N-])CC7)nc5c3F)N3C[C@H]5CC[C@H](N5)[C@H]3CO4)c12` [Example 36, 4-((5aS,6S,9R)-12-(((3S,7aS)-3-(azidomethyl)tetrahydro-1H-pyrrolizin-7a(5H)-yl)methoxy)-1-fluoro-5a,6,7,8,9,10-hexahydro-5H-4-oxa-3,10a,11,13,14-pentaaza-6,9-methanonaphtho[1,8-ab]heptalen-2-yl)-5-ethynyl-6-fluoronaphthalen-2-ol]: the IC50 at GDP-loaded KRAS G12D is 0.2 nM. The same compound gave a half-maximal effective concentration (EC50) in the experiment with GP2D (KRAS G12D) cells of 4 nM.

As to `Oc1cc(-c2nc3c4c(nc(OC[C@@]56CCCN5C[C@H](F)C6)nc4c2F)N2C[C@H]4CC[C@H](N4)[C@H]2CC3)c2c(OC3CC3)c(F)ccc2c1` [Example 37, 5-cyclopropoxy-6-fluoro-4-((5aR,6S,9R)-1-fluoro-12-(((2R,7aS)-2-fluorotetrahydro-1H-pyrrolizin-7a(5H)-yl)methoxy)-4,5,5a,6,7,8,9,10-octahydro-3,10a,11,13,14-pentaaza-6,9-methanonaphtho[1,8-ab]heptalen-2-yl)naphthalen-2-ol], at GDP-loaded KRAS G12D, the IC50 was 1 nM. In the experiment with GP2D (KRAS G12D) cells, this compound gave an EC50 of 9 nM.

Compound `C#Cc1c(F)ccc2cc(O)cc(-c3nc4c5c(nc(OCC6(CN7CC[C@@H](C(F)(F)F)C7)CC6)nc5c3F)N3C[C@H]5CC[C@H](N5)[C@H]3CO4)c12` [Example 43, 5-ethynyl-6-fluoro-4-((5aS,6S,9R)-1-fluoro-12-((1-(((R)-3-(trifluoromethyl)pyrrolidin-1-yl)methyl)cyclopropyl)methoxy)-5a,6,7,8,9,10-hexahydro-5H-4-oxa-3,10a,11,13,14-pentaaza-6,9-methanonaphtho[1,8-ab]heptalen-2-yl)naphthalen-2-ol] had an IC50 on GDP-loaded KRAS G12D of 0.6 nM. In addition, the EC50 in the experiment with GP2D (KRAS G12D) cells was 5 nM.

The compound `C#Cc1c(F)ccc2cc(O)cc(-c3nc4c5c(nc(OCC6(CN7CC[C@H](C(F)(F)F)C7)CC6)nc5c3F)N3C[C@H]5CC[C@H](N5)[C@H]3CO4)c12` [Example 44, 5-ethynyl-6-fluoro-4-((5aS,6S,9R)-1-fluoro-12-((1-(((S)-3-(trifluoromethyl)pyrrolidin-1-yl)methyl)cyclopropyl)methoxy)-5a,6,7,8,9,10-hexahydro-5H-4-oxa-3,10a,11,13,14-pentaaza-6,9-methanonaphtho[1,8-ab]heptalen-2-yl)naphthalen-2-ol] showed an IC50 at GDP-loaded KRAS G12D of 2 nM. Further, the EC50 with GP2D (KRAS G12D) cells was determined as 7 nM.

For the compound `C#Cc1c(F)ccc2cc(O)cc(-c3nc4c5c(nc(OC[C@@]67CCCN6[C@H](COC(=O)N(C)C(F)(F)F)CC7)nc5c3F)N3C[C@H]5CC[C@H](N5)[C@H]3CO4)c12` [Example 45, ((3S,7aS)-7a-((((5aS,6S,9R)-2-(8-ethynyl-7-fluoro-3-hydroxynaphthalen-1-yl)-1-fluoro-5a,6,7,8,9,10-hexahydro-5H-4-oxa-3,10a,11,13,14-pentaaza-6,9-methanonaphtho[1,8-ab]heptalen-12-yl)oxy)methyl)hexahydro-1H-pyrrolizin-3-yl)methyl methyl(trifluoromethyl)carbamate], at GDP-loaded KRAS G12D, the IC50 worked out at 0.3 nM. In the experiment with GP2D (KRAS G12D) cells, a half-maximal effect (EC50) was put at 4 nM.

At GDP-loaded KRAS G12D, `Fc1c(-c2cccc3ccccc23)nc2c3c(nc(OC[C@@]45CCCN4C[C@H](F)C5)nc13)N1C[C@H]3CC[C@H](N3)[C@H]1CO2` [Example 46, (5aS,6S,9R)-1-fluoro-12-(((2R,7aS)-2-fluorotetrahydro-1H-pyrrolizin-7a(5H)-yl)methoxy)-2-(naphthalen-1-yl)-5a,6,7,8,9,10-hexahydro-5H-4-oxa-3,10a,11,13,14-pentaaza-6,9-methanonaphtho[1,8-ab]heptalene] registered an IC50 of 910 nM. Further, the EC50 with GP2D (KRAS G12D) cells was more than 1000 nM.

At GDP-loaded KRAS G12D, `Fc1cc(-c2nc3c4c(nc(OC[C@@]56CCCN5C[C@H](F)C6)nc4c2F)N2C[C@H]4CC[C@H](N4)[C@H]2CO3)c2ccccc2c1` [Example 47, (5aS,6S,9R)-1-fluoro-2-(3-fluoronaphthalen-1-yl)-12-(((2R,7aS)-2-fluorotetrahydro-1H-pyrrolizin-7a(5H)-yl)methoxy)-5a,6,7,8,9,10-hexahydro-5H-4-oxa-3,10a,11,13,14-pentaaza-6,9-methanonaphtho[1,8-ab]heptalene] had an IC50 of 3400 nM. For the same compound, the EC50 in the experiment with GP2D (KRAS G12D) cells was more than 1000 nM.

As to `Fc1ccc2ccccc2c1-c1nc2c3c(nc(OC[C@@]45CCCN4C[C@H](F)C5)nc3c1F)N1C[C@H]3CC[C@H](N3)[C@H]1CO2` [Example 48, (5aS,6S,9R)-1-fluoro-2-(2-fluoronaphthalen-1-yl)-12-(((2R,7aS)-2-fluorotetrahydro-1H-pyrrolizin-7a(5H)-yl)methoxy)-5a,6,7,8,9,10-hexahydro-5H-4-oxa-3,10a,11,13,14-pentaaza-6,9-methanonaphtho[1,8-ab]heptalene], the IC50 on GDP-loaded KRAS G12D was 2200 nM. The same compound registered an EC50 in the experiment with GP2D (KRAS G12D) cells of more than 1000 nM.

As for `Oc1cc(-c2nc3c4c(nc(OC[C@@]56CCCN5C[C@H](F)C6)nc4c2F)N2C[C@H]4CC[C@H](N4)[C@H]2CC3)c2c(CC(F)(F)F)c(F)ccc2c1` [Example 50, 6-fluoro-4-((5aR,6S,9R)-1-fluoro-12-(((2R,7aS)-2-fluorotetrahydro-1H-pyrrolizin-7a(5H)-yl)methoxy)-4,5,5a,6,7,8,9,10-octahydro-3,10a,11,13,14-pentaaza-6,9-methanonaphtho[1,8-ab]heptalen-2-yl)-5-(2,2,2-trifluoroethyl)naphthalen-2-ol], the IC50 on GDP-loaded KRAS G12D came to 3 nM. Also, the EC50 in the experiment on GP2D (KRAS G12D) cells stood at 24 nM.

Turning to `C#Cc1c(F)ccc2cc(O)cc(-c3nc4c5c(nc(OC[C@@]67CCCN6[C@H](COC(=O)N(C)c6cccc(S(F)(F)(F)(F)F)c6)CC7)nc5c3F)N3C[C@H]5CC[C@H](N5)[C@H]3CO4)c12` [Example 51, ((3S,7aS)-7a-((((5aS,6S,9R)-2-(8-ethynyl-7-fluoro-3-hydroxynaphthalen-1-yl)-1-fluoro-5a,6,7,8,9,10-hexahydro-5H-4-oxa-3,10a,11,13,14-pentaaza-6,9-methanonaphtho[1,8-ab]heptalen-12-yl)oxy)methyl)hexahydro-1H-pyrrolizin-3-yl)methyl methyl(3-(pentafluoro-λ^6-sulfaneyl)phenyl)carbamate], the IC50 on GDP-loaded KRAS G12D came out at 2 nM. The response with GP2D (KRAS G12D) cells was half-maximal at 98 nM (EC50).

As for `C#Cc1c(F)ccc2cc(O)cc(-c3nc4c5c(nc(OC[C@@]67CCCN6C[C@H](F)C7)nc5c3F)N3C[C@H]5CC[C@H](N5)[C@H]3[C@H](C)O4)c12` [Example 53, 5-ethynyl-6-fluoro-4-((5S,5aS,6S,9R)-1-fluoro-12-(((2R,7aS)-2-fluorotetrahydro-1H-pyrrolizin-7a(5H)-yl)methoxy)-5-methyl-5a,6,7,8,9,10-hexahydro-5H-4-oxa-3,10a,11,13,14-pentaaza-6,9-methanonaphtho[1,8-ab]heptalen-2-yl)naphthalen-2-ol], the IC50 at GDP-loaded KRAS G12D was determined as 0.1 nM. Further, the EC50 in the experiment with GP2D (KRAS G12D) cells is 2 nM.

Turning to `Oc1cc(-c2nc3c4c(nc(OC[C@@]56CCCN5C[C@H](F)C6)nc4c2F)N2C[C@H]4CC[C@H](N4)[C@H]2CO3)c2c(SC(F)(F)F)c(F)ccc2c1` [Example 54, 6-fluoro-4-((5aS,6S,9R)-1-fluoro-12-(((2R,7aS)-2-fluorotetrahydro-1H-pyrrolizin-7a(5H)-yl)methoxy)-5a,6,7,8,9,10-hexahydro-5H-4-oxa-3,10a,11,13,14-pentaaza-6,9-methanonaphtho[1,8-ab]heptalen-2-yl)-5-((trifluoromethyl)thio)naphthalen-2-ol], the IC50 at GDP-loaded KRAS G12D amounted to 3 nM. Further, the EC50 in the experiment with GP2D (KRAS G12D) cells was 42 nM.

`C#Cc1c(F)ccc2cc(O)cc(-c3nc4c5c(nc(OC[C@@]67CCCN6[C@H](COC(C(F)(F)F)(C(F)(F)F)C(F)(F)F)CC7)nc5c3F)N3C[C@H]5CC[C@H](N5)[C@H]3CO4)c12` [Example 55, 5-ethynyl-6-fluoro-4-((5aS,6S,9R)-1-fluoro-12-(((3S,7aS)-3-(((1,1,1,3,3,3-hexafluoro-2-(trifluoromethyl)propan-2-yl)oxy)methyl)tetrahydro-1H-pyrrolizin-7a(5H)-yl)methoxy)-5a,6,7,8,9,10-hexahydro-5H-4-oxa-3,10a,11,13,14-pentaaza-6,9-methanonaphtho[1,8-ab]heptalen-2-yl)naphthalen-2-ol] returned an IC50 on GDP-loaded KRAS G12D of 0.5 nM. Moreover, in the experiment on GP2D (KRAS G12D) cells, a half-maximal response (EC50) required 0.8 nM.
